Marks after values point to notes of the source that are not given here. Positions of bridges follow the written chain, without caps; N, C: chain ends. Residues, ends and D or L forms follow the SMILES beside them. No end group written: not given here.
What was measured:
recombinant human uPAR = biological target: T1, recombinant human uPAR (Homo sapiens, UniProt Q03405); test: Microtitre plate solid phase ATF-ligand binding test; conditions: 0.6 ng ATF together with 15 μg synthetic peptide per ml; FIG. 2
T1 construct: made in house; host or cells: CHO cells
Procedure: In addition to the flow cytometric analyses, a solid phase ATF-ligand binding test was carried out in order to examine the interactions of synthetic peptides with the uPAR. For this microtitre plates were coated with recombinant human uPAR from CHO cells (Wilhelm et al., FEBS Lett. 337 (1994), 131-134; Magdolen et al., Electrophoresis 16 (1995), 813-816) and the remaining protein-binding sites were saturated with 2% BSA (weight/vol). After incubation with the samples (0.6 ng ATF together with 15 μg synthetic peptide per ml) and several wash steps, the amount of ATF which had bound to the uPAR immobilized on the microtitre plate was determined using a biotinylated monoclonal mouse antibody against the kringle domain of ATF (No. 377, American Diagnostics, Greenwich, Conn., USA) and subsequent addition of avidin-peroxidase conjugate and 3,3′,5,5′-tetramethylbenzidine/[…] as a substrate for the peroxidase. The presence of synthetic peptides which compete with the ATF binding to uPAR reduces the conversion of the chromogenic substrate.
A series of peptides with variable sequence regions from the receptor binding region of uPA were synthesized and were increasingly shortened at the amino terminus starting with uPA10-32. The microtitre plate solid phase binding test described in 1.4 was used to determine the inhibitory capacity of these peptides.

[1] = biological target: T2, cell surface-associated uPAR (Homo sapiens, UniProt Q03405); test: Flow cytometry: inhibition of binding of FITC-conjugated pro-uPA to cell surface-associated uPAR on PMA-stimulated U937 cells
T2 construct: source of cellular native uPAR; endogenous in cells; host or cells: U937 cells stimulated with PMA
Procedure: The ability of the synthetic peptides to inhibit the uPA/uPAR interaction was determined by means of flow cytometry on a FACScan flow cytometer (Becton-Dickinson, Heidelberg, Germany) using the human promyeloid cell line U937 as a source of cellular native uPAR (Chuchulowski et al., Fibrinolysis 6, Suppl. 4 (1992), 95-102; Magdolen et al., (1996), supra). The U937 cells were stimulated with […] phorbol-12-myristate-13-acetate (PMA) for 48 h. After stimulation with PMA the U937 cells expressed considerable amounts of cell surface-associated uPAR.
The stimulated cells were treated for 1 min at room temperature with 50 mM glycine HCl, 0.1 NaCl, pH 3.6 in order to dissociate endogenous receptor-bound uPA. Subsequently the acidic buffer was neutralized with 0.5 M HEPES-100 mM NaCl, pH 7.5. […] Before the analysis, propidium iodide, a fluorescent dye which specifically binds double-stranded DNA, was added to each sample in order to determine the viability of the analysed U937 cells. […]
For this the purified peptides were analysed by mass spectroscopy, quantified by amino acid analysis and then tested by flow cytometry according to the method described in 1.3 for their ability to inhibit the binding of fluorescent-labelled pro-uPA to the uPA receptor on U937 cells. […]

[2] = tested on: human breast cancer cells MDA-MB-231; test: Primary tumour growth of MDA-MB-231 cells injected into naked mice; format: in vivo, Balbc/3 naked mice; conditions: 10 mg/kg intraperitoneally twice weekly
Procedure: 6×10^6 human breast cancer cells MDA-MB-231 (Price et al., Cancer Res. 50 (1990), 717-721) in a total volume of 300 μl were injected into the right side of 4-6 week old Balbc/3 naked mice. Before injection the cancer cells were mixed with 200 μg of the cyclic uPA peptides cyclo^19,31uPA19-31 (SEQ ID NO: 3) and Cyclo^21,29[Cys21,29]uPA21-30 (SEQ ID NO: 4) in PBS, pH 7.4. Subsequently the mice were treated twice weekly intraperitoneally with the respective peptide at a dose of 10 mg/kg body weight (injection volume 300 μl). The volume of the primary tumours which occurred in the mice in cm^3 was determined after 1, 2, 3 and 5 weeks by measuring the two largest diameters. The control mice were administered PBS pH 7.4. Each group was composed of 5 mice. The results for the peptide cyclo^19,31uPA19-31 (SEQ ID NO: 3) are shown in Tab. 2.

[3] = Stability of binding activity after long storage in aqueous solution or repeated freeze/thaw cycles; format: physicochemical

T1 sequence (Q03405 23-299 limits assumed): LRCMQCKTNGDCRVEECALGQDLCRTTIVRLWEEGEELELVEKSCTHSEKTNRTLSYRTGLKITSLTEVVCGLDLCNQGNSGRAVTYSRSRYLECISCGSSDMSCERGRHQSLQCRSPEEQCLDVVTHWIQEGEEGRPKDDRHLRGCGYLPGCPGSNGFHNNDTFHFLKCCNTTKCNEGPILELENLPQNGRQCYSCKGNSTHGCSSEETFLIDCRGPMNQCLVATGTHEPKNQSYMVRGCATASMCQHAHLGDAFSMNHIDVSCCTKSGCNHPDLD
T2 sequence (Q03405 23-305): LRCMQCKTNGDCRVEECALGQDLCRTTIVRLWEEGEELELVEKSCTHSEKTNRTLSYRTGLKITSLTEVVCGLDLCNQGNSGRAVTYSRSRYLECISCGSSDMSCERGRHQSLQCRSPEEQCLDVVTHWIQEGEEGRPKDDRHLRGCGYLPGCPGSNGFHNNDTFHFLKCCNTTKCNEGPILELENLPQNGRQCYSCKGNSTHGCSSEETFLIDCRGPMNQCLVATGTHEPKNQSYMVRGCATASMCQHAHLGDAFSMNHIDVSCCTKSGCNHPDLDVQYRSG

Row | inhibition of the binding of ATF to uPAR / uPAR binding capacity (recombinant human uPAR) | Molecule | other results
1 | does not bind at all | uPA20-34: linear peptide from the receptor binding region of uPA, amino acids 20-34 (VSNKYFSNIHWCNCP) | –
2 | effectively inhibit | CC[C@H](C)[C@H](NC(=O)[C@H](CC(N)=O)NC(=O)[C@H](CO)NC(=O)[C@H](Cc1ccccc1)NC(=O)[C@H](Cc1ccc(O)cc1)NC(=O)[C@H](CCCCN)NC(=O)[C@H](CC(N)=O)NC(=O)[C@H](CO)NC(=O)[C@@H](NC(=O)[C@H](CS)NC(=O)[C@@H](NC(=O)CNC(=O)CN)[C@@H](C)O)C(C)C)C(=O)N[C@@H](Cc1c[nH]cn1)C(=O)N[C@@H](Cc1c[nH]c2ccccc12)C(=O)N[C@@H](CS)C(=O)N[C@@H](CC(N)=O)C(=O)O [uPA16-32] (H-GGTCVSNKYFSNIHWCN-OH; N-terminus assumed) | fold higher affinity to uPAR compared to uPA12-32 [C19A] and clone 20 peptide [1]: 4- to 5 fold; molar excess resulting in a 50% inhibition of the binding of uPA ([1]; FITC-conjugated pro-uPA): approximately 3,000 molar excess
3 | effectively inhibit | uPA12-31: linear peptide from the receptor binding region of uPA, amino acids 12-31 as printed (DCLNGGTCVSNKYFSNIHWC) | –

Further lines, the molecule ahead of its results:

Row | Molecule | inhibition of the binding of ATF to uPAR / uPAR binding capacity (recombinant human uPAR) | other results
4 | CC[C@H](C)[C@H](NC(=O)[C@H](CC(N)=O)NC(=O)[C@H](CO)NC(=O)[C@H](Cc1ccccc1)NC(=O)[C@H](Cc1ccc(O)cc1)NC(=O)[C@H](CCCCN)NC(=O)[C@H](CC(N)=O)NC(=O)[C@H](CO)NC(=O)[C@@H](NC(=O)[C@@H](N)CS)C(C)C)C(=O)N[C@@H](Cc1c[nH]cn1)C(=O)N[C@@H](Cc1c[nH]c2ccccc12)C(=O)N[C@@H](CS)C(=O)O [uPA19-31] (H-CVSNKYFSNIHWC-OH; N-terminus and C-terminus assumed) | higher affinity than the longer peptide uPA16-32 | –
5 | uPA14-32: linear peptide from the receptor binding region of uPA, amino acids 14-32 (LNGGTCVSNKYFSNIHWCN) | effectively inhibit | –
6 | uPA10-32: linear peptide from the receptor binding region of uPA, amino acids 10-32 (NCDCLNGGTCVSNKYFSNIHWCN) | effectively inhibit | –
7 | cyclo^19-31uPA19-31: cyclic peptide uPA19-31 with an intramolecular disulfide bond between the cysteine residues at positions 19 and 31 (CVSNKYFSNIHWC; disulfide 1-13) | still able to inhibit the binding of uPA to the uPA receptor | volume of the primary tumours ([2]; week 1): 0 cm^3; volume of the primary tumours ([2]; week 2): 0.086 ± 0.047 cm^3; volume of the primary tumours ([2]; week 3): 0.303 ± 0.129 cm^3; volume of the primary tumours ([2]; week 5, p = 0.02): 0.62 ± 0.21* cm^3; stability of binding activity compared with linear peptide uPA19-31 [3]: significantly more stable
